From US8557737B2, “Methods of altering poppy characteristics” (priority 2005, dated 2013)

Assays:
Format in all cases: in vivo, Papaver somniferum
poppy crops [1] = assay: Example 18: field trial, triasulfuron, mesosulfuron-methyl and metsulfuron-methyl at row cover, mid run-up and early hook, morphine crop; conditions: Trt 2: COMPOUND 1 120 MG/HA + PULSE .2% V/V at RC, MRU and LRU
Method: (§1) All trials were conducted on poppy crops. Seed was treated with Thiram (5.6 g of Thiram 800/kg seed) and Apron (4 g/kg) and sown at a rate of approximately 750 g/ha. Fertilisers were applied at sowing. Most commonly, either 50:50 lime:superphosphate/triple superphosphate at 125 kg/ha, or lime:superphosphate at 250 kg/ha, were mixed with seed and drilled at a depth of 15 mm. In the same operation, NPK (nitrogen:phosphorus:potassium), at various rates, was banded 75 mm below the seed, unless otherwise stated. All crops were subjected to herbicide sprays for weed control, fungicide sprays for disease control, insecticide sprays if appropriate and were irrigated as required.
(§2) All spray applications were made with a precision sprayer, using Silvan Lurmark flat-fan, low-drift nozzles (LD110-0015). Spray equipment was calibrated to deliver 153 L water/ha.
(§3) At harvest, a 2 m×4 m quadrat was placed in each plot (3 m×6 m, unless otherwise stated) and capsules hand-picked from this area. Capsules were broken up, seed and capsule material separated and weighed. Capsule moisture readings were taken with a moisture meter. Alkaloid yield data were calculated on Pesticide Research Manager (version 5 for Windows) using the formulae below. Briefly, capsule weight was adjusted for moisture to a dry weight, 5% of seed weight was added to this (this amount of capsule material regularly occurs in seed samples after processing) to give a capsule weight per plot. Seed weight was adjusted to 95% of crude weight. Straw weights were determined by multiplying dry capsule weight by 1.3 (estimated amount of stem material in a commercial harvest) and adjusted to 11% moisture. When Lontrel was applied to crops exact capsule and seed weight data were entered. Analyses of variance and a Multiple Range Test were performed on data using Pesticide Research Manager.
Trial to evaluate applications of triasulfuron, mesosulfuron-methyl and metsulfuron-methyl, in a morphine crop. […] Plant heights were measured 5 weeks after last application and lodging at capsule harvest.

poppy crops [2] = assay: Example 6: field trial, one or two applications of metsulfuron-methyl after Sunny versus metsulfuron-methyl alone; conditions: COMPOUND 1 120 MG/HA + PULSE .2 % V/V at ERU and at BE (two applications, alone)
Method: as §1, §2
as §3, with “Manager. Significant differences (P=0.05) between treatments are denoted by different lower case letters adjacent to treatment means in the tables of results.” for “Manager.”
Trial to evaluate one or two applications of 120 mg/ha metsulfuron-methyl (Compound 1) after 1 L/ha Sunny, and compare with two applications of metsulfuron-methyl alone. Sunny was applied with crop at 12-14 leaf, metsulfuron-methyl to crop at 12-14 leaf, early run-up and bud-emergence stages. Plant heights were measured at early-full flower and percent lodging was measured on the day of capsule harvest.

poppy crops [3] = assay: Example 19: field trial, sulfosulfuron, thifensulfuron-methyl and metsulfuron-methyl, morphine crop; conditions: 120 MG/HA + PULSE .2 % V/V, applied at M-LRU and LRU-BE
Method: as §1, §2, §3
Trial to evaluate applications of sulfosulfuron, thifensulfuron-methyl and metsulfuron-methyl, in a morphine crop. Treatment sprays were applied to crop at mid-late run-up and late-run-up/bud-emergence, respectively. Plant heights were measured some 10 weeks after the last application. Lodging was assessed at capsule harvest.

poppy crops [4] = assay: Example 4: field trial, metsulfuron-methyl alone or tank-mixed with Sunny at early run-up, morphine crop; conditions: COMPOUND 1 120 MG/HA + PULSE .2 % v/v at ERU
Method: as §1, §2
as §3, with “Manager. Significant differences (P=0.05) between treatments are denoted by different lower case letters adjacent to treatment means in the tables of results.” for “Manager.”
Trial to evaluate metsulfuron-methyl (Compound 1) (120 mg/ha) alone, or tank-mixed with Sunny (1 L/ha), in a morphine crop. Treatments were applied to crop at early run-up, plant heights were measured at early green capsule stage.

poppy crops [5] = assay: Example 9: field trial, mesosulfuron-methyl and metsulfuron-methyl, morphine crop; conditions: COMPOUND 1 120 MG/HA + PULSE .2 % V/V at GC, LRU and EBE
Method: as §1, §2, §3
Trial to evaluate applications of mesosulfuron-methyl (Compound 2) and metsulfuron-methyl (Compound 1), in a morphine crop. Treatment sprays were applied to crop at ground cover, late run-up and early bud-emergence, respectively. Plant heights were measured at green capsule stage, and lodging assessed on the day of capsule harvest.

poppy crops [6] = assay: Example 3: field trial, metsulfuron-methyl alone or tank-mixed with Sunny at early-mid run-up, morphine crop; conditions: COMPOUND 1 120 MG/HA + PULSE .2 % V/V at E-MRU
Method: as §1, §2
as §3, with “Manager. Significant differences (P=0.05) between treatments are denoted by different lower case letters adjacent to treatment means in the tables of results.” for “Manager.”
Trial to evaluate metsulfuron-methyl (Compound 1) (120 mg/ha) applied alone, or tank-mixed with Sunny (1 L/ha=50 g/ha), in a morphine crop. Treatments were applied to crop at early-mid run-up, plant heights were measured at green capsule stage.

[7] = measured at green capsule stage

COC(=O)c1ccccc1S(=O)(=O)NC(=O)Nc1nc(C)nc(OC)n1 [Compound 1, metsulfuron-methyl]
CAPS/SEED RATIO (poppy crops [1]): 2.543 a | CROP WEIGHT (poppy crops [1]): 2.87 b t/ha | MORPHINE (poppy crops [1]): 46.52 b kg/ha | SEED (poppy crops [1]): 643 c kg/ha | STRAW (poppy crops [1]): 2186 a kg/ha | STRAW MORPHINE (poppy crops [1]): 2.13 c % | PLANT HEIGHT (poppy crops [1]; 5 weeks after last application): 88.0 cm·days | LODGING (poppy crops [1]; at capsule harvest): 1.8 a % | CAPSULE/SEED RATIO (poppy crops [2]): 6.140 a | CROP WEIGHT (poppy crops [2]): 2.46 c t/ha | MORPHINE (poppy crops [2]): 38.8 b kg/ha | SEED (poppy crops [2]): 269 c kg/ha | STRAW (poppy crops [2]): 2194 a kg/ha | STRAW MORPHINE (poppy crops [2]): 1.77 b % | PLANT HEIGHT (poppy crops [2]; measured at early-full flower): 77.4 cm·days | LODGING (poppy crops [2]; measured on the day of capsule harvest): 1.0 b % | CAPSULE/SEED RATIO (poppy crops [3]): 6.352 | CROP WEIGHT (poppy crops [3]): 1.33 t/ha | MORPHINE (poppy crops [3]): 21.65 kg/ha | SEED (poppy crops [3]): 131 kg/ha | STRAW (poppy crops [3]): 1203 kg/ha | STRAW MORPHINE % (poppy crops [3]): 1.80% | PLANT HEIGHT (poppy crops [3]; measured some 10 weeks after last application): 72 cm | CAPSULE/SEED RATIO (poppy crops [4]): 0.978 a | CROP WEIGHT (poppy crops [4]): 2.30 b t/ha | MORPHINE (poppy crops [4]): 31.32 a kg/ha | SEED (poppy crops [4]): 955 c kg/ha | STRAW (poppy crops [4]): 1349 a kg/ha | STRAW MORPHINE (poppy crops [4]): 2.32 a % | PLANT HEIGHT (poppy crops [4]; measured at early green capsule stage): 82.6 a cm | CAPSULE/SEED RATIO (poppy crops [5]): 3.844 a | CROP WEIGHT (poppy crops [5]): 2.67 b t/ha | MORPHINE (poppy crops [5]): 43.94 a kg/ha | SEED (poppy crops [5]): 468 b kg/ha | STRAW (poppy crops [5]): 2206 a kg/ha | STRAW MORPHINE (poppy crops [5]): 2.04 a % | LODGING (poppy crops [5]; assessed on the day of capsule harvest): 2.3 c % | HEIGHT (poppy crops [5]; [7]): 94.5 ab cm | CAPSULE/SEED RATIO (poppy crops [6]): 0.984 ab | CROP WEIGHT (poppy crops [6]): 1.52 ab t/ha | MORPHINE (poppy crops [6]): 20.88 a kg/ha | SEED (poppy crops [6]): 640 c kg/ha | STRAW (poppy crops [6]): 884 ab kg/ha | STRAW MORPHINE (poppy crops [6]): 2.36 a % | PLANT HEIGHT (poppy crops [6]; [7]): 101.0 a cm
